Columns and labels:
[1] = Dephosphorylation of purified phosphorylated AMPK peptide
Protocol: Unless otherwise stated, all solvents and materials were purchased from either Sigma Aldrich, Fisher Scientific or Fluorochem and were used without further purification. ^1H, ^13C, DEPT-135 and DEPT-90 NMR data was recorded on either a Bruker Fourier 300 MHz or Bruker Avance III (AVIII) 400 MHz spectrometer or a Bruker Avance Neo 600 MHz NMR spectrometer. Mass spectra were obtained on an Agilent 6210 TOF MS with electrospray ionisation operating in positive ion mode and mass spectra of metal complexes were obtained on a Bruker Micro TOF-q LC mass spectrometer with electrospray ionisation operating in positive ion mode. Phosphorylated ‘SAMS’ peptide HMRSAMS*GLHLVKRR (phosphorylated on the serine residue) was obtained from PeptideSynthetics, Peptide Protein Research Ltd (>95% purity).
There are several potential mechanisms which could lead the observed kinase inhibition ‘readout’ of this screen including, i) direct ATP hydrolysis by the complex(es) and differing Km of the kinases for ATP, and, ii) dephosphorylation of the peptide substrate by the phosphatase activity of the Zn^2+ complex resulting in cycles of peptide phosphorylation by active recombinant enzyme and dephosphorylation by the complex.

[2] = test system: AMPK; experiment: Cell-free kinase screen; type: biochemical, human; conditions: 10 μM complex
Protocol: FIG. 9. Effects of [L2Zn3]^6+ and [L2Cu3]^6+ on the activity of purified human kinases. a,b, Percentage inhibition of the indicated kinases by [L2Zn3]^6+ (a) and [L2Cu3]^6+ (b) respectively at a concentration of 10 μM; full results are presented in the ESI. c,d, Kinases whose activity is stimulated by [L2Zn3]^6+ (c) or [L2Cu3]^6+ (d) complexes. e,f, Kinome map showing kinases inhibited (red) or stimulated (green) by [L2Zn3]^6+ (e) or [L2Cu3]^6+ (f). III ustration reproduced courtesy of Cell Signalling Technology Inc (www.cellsignal.com)
FIG. 16. The effect of [L2Zn3]^6+ and [L2Cu3]^6+ on the activity of recombinant human kinases. The compounds were submitted to the MRC Protein Phosphorylation and Ubiquitination Unit International Centre for Kinase Profiling (University of Dundee) and tested at a concentration of 10 μM against 140 human kinases (Premier Screen).
Given the ability of the Zn^2+ complex to dephosphorylate amino acids serine, tyrosine and threonine (FIG. 6) and the Cu^2+ complex to bind phenyl phosphate (FIG. 3), it was examined whether the complexes affect the activity of kinases. This was assessed in a cell-free screen of 140 kinases using purified recombinant human kinases and substrate peptides incubated in the presence of ^33P ATP and 10 μM complex or solvent control. […]

[3] = test system: HCT116 cancer cells; experiment: Immunoblot of cellular proteins after treatment; type: cell-based, human; conditions: 5 μM, 40 h
Protocol: (§1) FIG. 12. Immunoblots showing the differential effects of [L2Cu3]^6+ and [L2Zn3]^6+ treatment of HCT116 cancer cells and ARPE19 non-cancer cells on key cellular proteins associated with cellular and metabolic stress. Representative immunoblot images of the indicated proteins following cell exposure to 5 μM [L2Cu3]^6+ or [L2Zn3]^6+ for 40 h. Tyrosine phosphorylated proteins are indicated using a pan-phospho-Tyr antibody; β-actin as a loading control.
(§2) Protein lysates and recombinant proteins were resolved on 15% SDS polyacrylamide gels. Proteins were electroblotted onto nitrocellulose membrane by wet transfer in 1×Tris Glycine buffer (Biorad) at 35 mA overnight at room temperature (Allison et al., 2014). After blocking of membranes, these were incubated with primary antibody overnight at 4° C. before addition of rabbit or mouse secondary antibody (HRP-conjugated) for 1 h at room temperature and development of blots by enhanced chemiluminescence. Primary antibodies were: anti-Src (total) (Cell Signalling Technology #2123 1:1000), anti-phosphorylated Src (Y527) (Cell Signalling Technology #21055 1:1000), anti-phosphorylated Src (Y416) (Cell Signalling Technology #69435 1:1000), anti-AMPKα (total) (Cell Signalling Technology #2532 1:1000), anti-phosphorylated AMPKα (T172) (Cell Signalling Technology […] 1:1000), anti-phospho-Tyr (pan) (Cell Signalling Technology #8954 1:2000), anti-p53 (Santa Cruz, DO-1 clone, 1:1000), anti-β-actin (Merck MAB1501, 1:40,000). Quantification of signals was performed by densitometry using Image J software.

[4] = test system: ARPE19 non-cancer cells; experiment: Immunoblot of cellular proteins after treatment; type: cell-based, human; conditions: 5 μM, 40 h
Protocol: as §1, §2

[5] = test system: chick embryo; experiment: Embryonic toxicity, HCT116 in ovo study; type: in vivo, chick (White Leghorn); conditions: for embryo tolerability: all doses tested, no statistically significant difference to solvent control; for % Alive / % Dead / Alive (embryos at E18) / Dead (embryos at E18): HCT116 study
Protocol: 10^6 tumor cells (H460, HT29 or HCT116) were grafted onto the upper chorioallantoic membrane (CAM) of the developing chick embryo on embryonic day 9 (E9). Access to the upper CAM was through a small hole drilled through the eggshell of fertilized White Leghorn eggs (into the air sac) on E9 (15 eggs per experimental group).
100 μl of freshly prepared experimental compound, vehicle control or standard-of-care (SoC) drug at their working concentrations were pipetted onto the tumor graft at E11, E13, E15 and E17. On day E18, the upper CAM (with tumor) was removed, washed by PBS buffer and then directly transferred in PFA (fixation for 48 hrs). After that, tumors were carefully cut away from normal CAM tissue and weighed.
Embryonic viability was checked daily. The number of dead embryos was also counted on E18, to evaluate treatment-induced embryo toxicity.

[6] = dose [1]: L2Zn3 70.5 μM, L2Cu3 75 μM
[7] = dose [2]: L2Zn3 141 μM, L2Cu3 150 μM
[8] = dose [3]: L2Zn3 282 μM, L2Cu3 300 μM

Structure (SMILES)	dephosphorylation of phosphorylated AMPK peptide [1]	effect on AMPK activity in the kinase screen [2]	increase in p53 levels [3] [fold]	p53 levels [4]	embryo tolerability [5]	% Alive [5, 6] [%]	% Dead [5, 6] [%]	Alive (embryos at E18) [5, 6]	Dead (embryos at E18) [5, 6]	% Alive [5, 7] [%]	% Dead [5, 7] [%]	Alive (embryos at E18) [5, 7]	Dead (embryos at E18) [5, 7]	% Alive [5, 8] [%]	% Dead [5, 8] [%]	Alive (embryos at E18) [5, 8]	Dead (embryos at E18) [5, 8]	cellular p-T172 AMPKα relative to total AMPKα levels [3]	decrease in total levels of Tyr-phosphorylated proteins ([3]; pan phospho-tyrosine antibody) [%]
[Cu+2].[Cu+2].[Cu+2].c1ccc(-c2csc(NCCN(CCNc3nc(-c4ccccn4)cs3)CCNc3nc(-c4ccccn4)cs3)n2)nc1.c1ccc(-c2csc(NCCN(CCNc3nc(-c4ccccn4)cs3)CCNc3nc(-c4ccccn4)cs3)n2)nc1 [[L2Cu3]^6+]	neither complex resulted in dephosphorylation	inhibition of AMPK	~1.7	decreased	well tolerated	100	0	14	0	86.67	13.33	13	2	86.67	13.33	13	2		
[Zn+2].[Zn+2].[Zn+2].c1ccc(-c2csc(NCCN(CCNc3nc(-c4ccccn4)cs3)CCNc3nc(-c4ccccn4)cs3)n2)nc1.c1ccc(-c2csc(NCCN(CCNc3nc(-c4ccccn4)cs3)CCNc3nc(-c4ccccn4)cs3)n2)nc1 [[L2Zn3]^6+]	neither complex resulted in dephosphorylation	inhibition of AMPK	~2.7	decreased	well tolerated	100	0	15	0	86.67	13.33	13	2	80.00	20.00	12	3	increased	~10
